{
  "source": "patent US20080275078A1",
  "about": "“Pyrazolo[3,4-B] Pyridine Compounds and Their Use as Pde4 Inhibitors” (Glaxo Group Limited, priority 2004, published 2008)",
  "key": {"[1]": {"test_system": "atopic dermatitis patients", "settings": "0.5% ointment, twice daily topical application; cited from earlier work"}, "[2]": {"test_system": "dinitrofluorobenzene (DNFB)-induced delayed type hypersensitivity (DTH) response in pigs", "test": "In Vivo Assay A: pig model of atopic dermatitis, skin topical administration", "settings": "for reduction in the mean summed score: ca. 2.5% (w/v) in DMSO/acetone solution, about 2 h prior to and 6 h after DNFB challenge, vs vehicle alone", "text": "The pig DTH (delayed type hypersensitivity) model of contact hypersensitivity utilizes the Th2-mediated inflammatory response in pig skin to mimic the pathology of atopic dermatitis in humans. The model measures the potential anti-inflammatory effect of compounds, topically-applied to the skin, on the acute DTH (delayed type hypersensitivity) response in castrated male Yorkshire pigs.\nIn general in the assay, pigs (domestic Yorkshire pigs, 15-18 kg at time of sensitization, castrated males) are first sensitized by topical application of ca. 10% (w/v) dinitrofluorobenzene (DNFB) dissolved in DMSO:acetone:olive oil (ca. 1:5:3) (ca. 40 mg DNFB, 400 microlitre solution total) to the ears (outer) and groin (inner). The pigs are then challenged 12 days later with ca. 0.6% (w/v) DNFB applied to randomized sites on the shaved back of the pigs (ca. 90 micrograms/site; sites are identified and numbered by grid made with marking pen).\nOn the day of challenge, the treatments are performed at the challenge sites at about 2 hours prior to and about 6 hours after challenge (for DMSO/acetone solutions/suspensions containing the PDE4 inhibitor, to maximize exposure to drug), or at about 30 minutes after and about 6 hours after challenge (for topical ointments or creams containing the PDE4 inhibitor, representing a more clinically relevant treatment protocol).\nOne day (about 24 hrs) after challenge, and optionally again at ca. 48 hrs post challenge, test sites are visually evaluated for intensity and extent of erythema by measuring the diameter of the reaction at its widest point and assigning scores of 0 to 4 for each of erythema intensity and erythema extent. Induration (a measure of swelling) is also scored 0 to 4. Scores for erythema intensity, erythema extent and induration are assigned according to the following criteria: Intensity of Erythema: 0=normal, 1=minimal, barely visible, 2=mild, 3=moderate, 4=severe. Extent of Erythema (not raised): 0=no edema, 1=macules of pin head size, 2=lentil sized macules, 3=confluent macules, 4=diffuse over entire site. Induration (palpable): 0=normal, 1=nodules of pin head size, 2=doughy lentil sized nodules, 3=confluent firm nodules, 4=diffuse hard lesion. The summed visual score at ca. 24 hours includes the individual scores for erythema intensity, erythema extent, and induration; so the maximal summed score for each site would be 12. High summed scores can generally indicate a high inflammatory response. Visual scores are subject to some inaccuracy/error.\nDifferences in the summed score between adjacent control (placebo) and treatment sites on the grids are calculated. This difference value is then used to determine the percent inhibition compared to the summed score for the control (placebo) sites. The more negative the difference value, the greater the calculated inhibition. Percent inhibition of (percent inhibition compared to) the mean summed score can be calculated.\nAbout 24 hours after challenge, treatment sites can optionally also be visually evaluated for lesion area.\nThe anti-inflammatory effect of the compound 4-{[1-(aminocarbonyl)-4-piperidinyl]amino}-N-[(3,4-dimethylphenyl)methyl]-1-ethyl-1H-pyrazolo[3,4-b]pyridine-5-carboxamide (“Example 2 or 2A compound”), applied topically to the skin, on the acute DTH response in castrated male Yorkshire pigs is compared to that of another PDE4 inhibitor cipamfylline (BRL-61063) and the topical immunomodulator pimecrolimus.\nIn the above assay, the Example 2 or 2A compound is topically administered: either (A) at ca. 2.5% (w/v) concentration in a solution of ca. 10% DMSO/90% acetone (ca. 50 microlitres or ca. 1.5 mg/site) at about 2 hours prior to and about 6 hours after the DNFB challenge; or (B) at ca. 0.5% (w/w) concentration in an ointment containing propylene glycol (PG)* (ca. 25 mg of formulation/site) at about 30 minutes after and about 6 hours after the DNFB challenge. […]"}, "[3]": {"test": "Preliminary test of systemic exposure after oral administration to rat(s)", "type": "in vivo", "settings": "about 1 mg/kg, free base, in approx. 10% DMSO and 90% PEG200/water (70:30), preliminary tests", "text": "Although the compound of formula (I) or salt thereof may be administered orally, oral administration is not presently thought to be a preferred route of administration, at least for the compound 4-{[1-(aminocarbonyl)-4-piperidinyl]amino}-N-[(3,4-dimethylphenyl)methyl]-1-ethyl-1H-pyrazolo[3,4-b]pyridine-5-carboxamide (“free base” form) (e.g. Example 2, 2A or 2B)."}, "[4]": {"test": "Preliminary aqueous solubility screen", "type": "physicochemical", "settings": "pH 7.4 PBS with about 5% DMSO, about room temperature, free base", "procedure": "Aqueous solubility: A preliminary screen aims to estimate roughly the aqueous solubility of compounds by (as an approximate summary): (i) creating a ca. 10 mM solution of the compound in DMSO, (ii) diluting a portion of this DMSO solution by mixing about 19 parts by volume of pH 7.4 aqueous phosphate buffered saline (PBS) buffer with 1 part by volume of the ca. 10 mM DMSO solution, (iii) “filtering” the mixture with the aid of centrifugation, and then (iv) measuring the concentration of the dissolved compound in the “filtrate”."}, "Measured logD": {"test": "Measured logD", "type": "physicochemical", "settings": "octanol/water; pH=7.4, free base"}, "[5]": {"biological_target": "T1, PDE4B (human recombinant) (Homo sapiens, UniProt Q07343)", "T1 construct": "made in house; host or cells: Saccharomyces cerevisiae strain GL62 (PDE-deficient yeast), 100,000xg supernatant of cell lysate, as described in WO 94/20079", "T1 sequence (Q07343 1-564 isoform Q07343-2)": "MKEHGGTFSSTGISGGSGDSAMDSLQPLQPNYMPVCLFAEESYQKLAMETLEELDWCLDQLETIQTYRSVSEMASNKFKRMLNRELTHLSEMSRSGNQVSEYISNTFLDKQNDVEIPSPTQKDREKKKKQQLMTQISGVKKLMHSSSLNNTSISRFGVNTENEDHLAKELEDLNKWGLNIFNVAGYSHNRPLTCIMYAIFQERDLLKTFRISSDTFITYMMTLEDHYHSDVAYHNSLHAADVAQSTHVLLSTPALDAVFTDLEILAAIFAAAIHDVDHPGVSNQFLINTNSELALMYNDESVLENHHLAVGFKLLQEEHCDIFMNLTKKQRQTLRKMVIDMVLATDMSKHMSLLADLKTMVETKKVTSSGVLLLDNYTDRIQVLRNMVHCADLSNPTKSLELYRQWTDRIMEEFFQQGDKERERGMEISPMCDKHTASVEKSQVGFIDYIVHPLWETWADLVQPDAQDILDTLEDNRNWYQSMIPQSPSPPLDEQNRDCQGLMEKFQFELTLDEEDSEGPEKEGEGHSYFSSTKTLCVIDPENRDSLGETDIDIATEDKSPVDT", "test": "Inhibition of PDE4B activity (SPA or FP assay)", "type": "biochemical", "settings": "SPA or FP assay or similar; n=1 or average of 2 or more readings; range given for the listed group of Examples; read-out: PDE4B pIC50 (±about 0.5) (converted)", "text": "Human recombinant PDE4B, in particular the 2B splice variant thereof (HSPDE4B2B), is disclosed in WO 94/20079 and also M. M. McLaughlin et al., “A low Km, rolipram-sensitive, cAMP-specific phosphodiesterase from human brain: cloning and expression of cDNA, biochemical characterisation of recombinant protein, and tissue distribution of mRNA”, J. Biol. Chem., 1993, 268, 6470-6476. For example, in Example 1 of WO 94/20079, human recombinant PDE4B is described as being expressed in the PDE-deficient yeast Saccharomyces cerevisiae strain GL62, e.g. after induction by addition of 150 uM CuSO4, and 100,000×g supernatant fractions of yeast cell lysates are described for use in the harvesting of PDE4B enzyme.\nThe ability of compounds to inhibit catalytic activity at PDE4B or 4D (human recombinant), PDE3 (from bovine aorta), PDE5 (human recombinant) or PDE6 (from bovine retina) can optionally be determined by Scintillation Proximity Assay (SPA) in a 96-well format. • Test compounds (as a solution in DMSO, preferably about 2 microlitre (ul) volume of DMSO solution) are preincubated at ambient temperature (room temperature, e.g. 19-23° C.) in Wallac Isoplates (code 1450-514) with PDE enzyme in 50 mM Tris-HCl buffer pH 7.5, 8.3 mM MgCl2, 1.7 mM EGTA, 0.05% (w/v) bovine serum albumin for 10-30 minutes (usually 30 minutes). The enzyme concentration is adjusted so that no more than 20% hydrolysis of the substrate defined below occurs in control wells without compound, during the incubation. For the PDE3, PDE4B and PDE4D assays, [5′,8-^3H]Adenosine 3′,5′-cyclic phosphate (Amersham Pharmacia Biotech, code TRK.559; or Amersham Biosciences UK Ltd, Pollards Wood, Chalfont St Giles, Buckinghamshire HP8 4SP, UK) is added to give 0.05 uCi per well and about 10 nM final concentration. For the PDE5 and PDE6 assays, [8-^3H]Guanosine 3′,5′-cyclic phosphate (Amersham Pharmacia Biotech, code TRK.392) is added to give 0.05 uCi per well and about 36 nM final concentration. Plates containing assay mixture, preferably approx. 100 ul volume of assay mixture, are mixed on an orbital shaker for 5 minutes and incubated at ambient temperature for 1 hour. Phosphodiesterase SPA beads (Amersham Pharmacia Biotech, code RPNQ 0150) are added (about 1 mg per well) to terminate the assay. Plates are sealed and shaken and allowed to stand at ambient temperature for 35 minutes to 1 hour (preferably 35 minutes) to allow the beads to settle. Bound radioactive product is measured using a WALLAC TRILUX 1450 Microbeta scintillation counter. For inhibition curves, 10 concentrations (e.g. 1.5 nM-30 uM) of each compound are assayed. Curves are analysed using ActivityBase and XLfit (ID Business Solutions Limited, 2 Ocean Court, Surrey Research Park, Guildford, Surrey GU2 7QB, United Kingdom) Results are expressed as pIC50 values.\nThe ability of compounds to inhibit catalytic activity at PDE4B (human recombinant) or PDE4D (human recombinant) can optionally be determined by IMAP Fluorescence Polarisation (FP) assay (IMAP Explorer kit, available from Molecular Devices Corporation, Sunnydale, Calif., USA; Molecular Devices code: R8062) in a 384-well format.\nThe IMAP FP assay is able to measure PDE activity in an homogenous, non-radioactive assay format. The FP assay uses the ability of immobilised trivalent metal cations, coated onto nanoparticles (tiny beads), to bind the phosphate group of Fl-AMP that is produced on the hydrolysis of fluorescein-labelled (Fl) cyclic adenosine mono-phosphate (Fl-cAMP) to the non-cyclic Fl-AMP form. […] Binding of Fl-AMP product to the beads (coated with the immobilised trivalent cations) slows the rotation of the bound Fl-AMP and leads to an increase in the fluorescence polarisation ratio of parallel to perpendicular light. Inhibition of the PDE reduces/inhibits this signal increase. […]"}, "COPD patients": {"test_system": "COPD patients", "settings": "cited from earlier work"}, "[6]": {"test_system": "atopic dermatitis patients", "settings": "0.15% cream vs vehicle and hydrocortisone 17-butyrate (0.1%) cream; cited from earlier work"}},
  "data": [
    {"smiles": "COc1ccc(C2CNC(=O)NC2)cc1O[C@H]1C[C@@H]2CC[C@H]1C2", "note": "[CP80,633]", "values": [
      {"measurement": "inflammatory parameters in atopic dermatitis patients", "setting": "[1]", "value": "reductions of inflammatory parameters"}
    ]},
    {"smiles": "CCn1ncc2c(NC3CCN(C(N)=O)CC3)c(C(=O)NCc3ccc(C)c(C)c3)cnc21", "note": "[Example 2, 4-{[1-(aminocarbonyl)-4-piperidinyl]amino}-N-[(3,4-dimethylphenyl)methyl]-1-ethyl-1H-pyrazolo[3,4-b]pyridine-5-carboxamide]", "values": [
      {"measurement": "melting point", "value": "152 to 154", "unit": "°C"},
      {"measurement": "inhibition of the mean summed score (erythema intensity, erythema extent, induration)", "setting": "[2]; ca. 0.5% (w/w) in PG ointment, about 30 min and 6 h after DNFB challenge, vs placebo PG ointment, ca. 24 h, p<0.05", "value": "13-14%"},
      {"measurement": "reduction in the mean summed score", "setting": "[2]", "value": "about 21%"},
      {"measurement": "lesion area", "setting": "[2]; skin administration in DMSO/acetone or PG ointment, results subject to some inaccuracy/error", "value": "decrease the lesion area"},
      {"measurement": "systemic exposure after oral administration", "setting": "[3]", "value": "low systemic exposure"},
      {"measurement": "aqueous solubility", "setting": "[4]", "value": "about 60 micrograms of the compound/ml"},
      {"measurement": "logD", "setting": "Measured logD", "value": "~3.4"}
    ]},
    {"smiles": "CCn1ncc2c(N[C@@H]3CCN(C(N)=O)C3)c(C(=O)NCc3ccc(C)c(C)c3)cnc21", "note": "[Example 72, 4-{[(3R)-1-(aminocarbonyl)-3-pyrrolidinyl]amino}-N-[(3,4-dimethylphenyl)methyl]-1-ethyl-1H-pyrazolo[3,4-b]pyridine-5-carboxamide]", "values": [
      {"measurement": "IC50", "setting": "[5]", "value": "31.6 to 100", "unit": "nM"}
    ]},
    {"smiles": "COc1ccc([C@]2(C#N)CC[C@@H](C(=O)O)CC2)cc1OC1CCCC1", "note": "[cilomilast]", "values": [
      {"measurement": "forced expiratory volume (FEV1) in COPD patients", "setting": "COPD patients; 15 mg orally twice daily", "value": "appears to improve forced expiratory volume"},
      {"measurement": "antiinflammatory effects in COPD patients", "setting": "COPD patients; human, in vivo", "value": "appears to have antiinflammatory effects"}
    ]},
    {"smiles": "Nc1nc2c([nH]1)c(=O)n(CC1CC1)c(=O)n2CC1CC1", "note": "[cipamfylline, reference compound]", "values": [
      {"measurement": "effectiveness in the treatment of atopic dermatitis patients", "setting": "[6]", "value": "significantly more effective than vehicle, but significantly less effective than hydrocortisone 17-butyrate (0.1%) cream"},
      {"measurement": "reduction in the summed scores", "setting": "[2]; ca. 0.25% (w/w) in ointment, not statistically significant", "value": "6-7%"},
      {"measurement": "reduction in the mean summed score", "setting": "[2]", "value": "about 8%"}
    ]},
    {"smiles": "CC[C@@H]1/C=C(\\C)C[C@H](C)C[C@H](OC)[C@H]2O[C@@](O)(C(=O)C(=O)N3CCCC[C@H]3C(=O)O[C@H](/C(C)=C/[C@@H]3CC[C@H](Cl)[C@H](OC)C3)[C@H](C)[C@@H](O)CC1=O)[C@H](C)C[C@@H]2OC", "note": "[pimecrolimus, reference compound]", "values": [
      {"measurement": "inhibition of the summed scores", "setting": "[2]; 1% (w/w) cream formulation, p<0.05 by ANOVA", "value": "about 29%"}
    ]},
    {"smiles": "O=C(Nc1c(Cl)cncc1Cl)c1ccc(OC(F)F)c(OCC2CC2)c1", "note": "[roflumilast]", "values": [
      {"measurement": "FEV1 in COPD patients", "setting": "COPD patients; roflumilast, Lipworth 2005", "value": "small improvements in FEV1"}
    ]}
  ]
}
